Among the data in ChEMBL document CHEMBL1157947, “Antineoplastic Agents. 554. The manitoba bacterium Streptomyces sp” (2006) are GI50 and MIC values, retold here.

The structures appear in SMILES notation. In brackets after ≈: the same amount, converted by molar mass.

What all share (type): functional
Experiment [1] concerns P388. Nature of the experiment: Growth inhibition of mouse P388 cells.
In experiment [2] the test system is BXPC-3. Nature of the experiment: Growth inhibition of human BXPC3 cells.
Experiment [3] concerns MCF7. In words: Growth inhibition of human MCF7 cells.
Experiment [4] deals with SF-268. Nature of the experiment: Growth inhibition of human SF268 cells.
Experiment [5] concerns NCI-H460. In words: Growth inhibition of human NCI-H460 cells.
The subject of experiment [6] is KM-20L2. In words: Growth inhibition of human KM20L2 cells.
In experiment [7] the test system is DU-145. Nature of the experiment: Growth inhibition of human DU145 cells.
For experiment [8], the system named is Streptococcus pneumoniae. Nature of the experiment: Antibacterial activity against Streptococcus pneumoniae ATCC 6303 by broth microdilution method. In general terms: Broth dilution looks for growth in wells or tubes with falling amounts of substance.
Experiment [9] has as its system Neisseria gonorrhoeae. Nature of the experiment: Antibacterial activity against Neisseria gonorrhoeae ATCC 49226 by broth microdilution method.
Experiment [10] concerns Micrococcus luteus. Nature of the experiment: Antibacterial activity against Micrococcus luteus by broth microdilution method.
Experiment [11] relates to Stenotrophomonas maltophilia. Nature of the experiment: Antibacterial activity against Stenotrophomonas maltophilia by broth microdilution method.
The subject of experiment [12] is Staphylococcus aureus. In words: Antibacterial activity against Staphylococcus aureus by broth microdilution method.
Experiment [13] relates to Escherichia coli. Nature of the experiment: Antibacterial activity against sEscherichia coli by broth microdilution method.
The test system of experiment [14] is Enterobacter cloacae. Nature of the experiment: Antibacterial activity against sEnterobacter cloacae by broth microdilution method.
Experiment [15] has as its system Enterococcus faecalis. In words: Antibacterial activity against sEnterococcus faecalis by broth microdilution method.
Experiment [16] deals with Candida albicans. Nature of the experiment: Antifungal activity against Candida albicans by broth microdilution method.
Experiment [17] relates to Cryptococcus neoformans. In words: […] activity against Cryptococcus neoformans by broth microdilution method.

Usually GI50 stands for the concentration that inhibits growth by half. As for `O=C(CO)c1c[nH]c2ccccc12`, the 50% growth inhibitory concentration (GI50) came to 2.8 µg/mL (≈ 16 µM) in experiment [1]; 0.31 µg/mL (≈ 1.77 µM) in [2]; 0.82 µg/mL (≈ 4.68 µM) in experiment [3]; 1.8 µg/mL (≈ 10.3 µM) in experiment [4]; 0.17 µg/mL (≈ 0.97 µM) in [5]; 1.2 µg/mL (≈ 6.85 µM) in [6]. The compound also returned a GI50 in [7] of 0.21 µg/mL (≈ 1.2 µM).

Usually MIC stands for the lowest concentration that inhibits growth of the organism. A low value points to inhibition by little substance. As to `Cc1cc(=O)n(C)c2c1C(=O)c1c(C)cc(=O)n(C)c1C2=O` [DIAZAANTHRAQUINONE], the GI50 in experiment [1] was found to be 1.4 µg/mL (≈ 4.69 µM); in [2], 0.54 µg/mL (≈ 1.81 µM); in [3], 0.49 µg/mL (≈ 1.64 µM); in experiment [4], 1.3 µg/mL (≈ 4.36 µM); in experiment [5], 1.2 µg/mL (≈ 4.02 µM); in [6] it was 0.32 µg/mL (≈ 1.07 µM). The compound further displayed a GI50 in experiment [7] of 1 µg/mL (≈ 3.35 µM). Also, the MIC is 16 µg/mL (≈ 53.6 µM) in experiment [8]; 4 µg/mL (≈ 13.4 µM) in experiment [9]; > 64 µg/mL in experiment [10]; > 64 µg/mL in experiment [11]; > 64 µg/mL in experiment [12]; > 64 µg/mL in experiment [13]. Moreover, the MIC in [14], in [15], in experiment [16] and in experiment [17] was > 64 µg/mL each time.
